From article PMC11603362, “Cannabidiol inhibits transient receptor potential canonical 4 and modulates excitability of pyramidal neurons in mPFC” (Frontiers in Pharmacology, 2024)

Target: T1, TRPC4 (Homo sapiens, UniProt Q9UBN4)
T1 construct: human TRPC4a channel
T1 sequence (Q9UBN4 1-977): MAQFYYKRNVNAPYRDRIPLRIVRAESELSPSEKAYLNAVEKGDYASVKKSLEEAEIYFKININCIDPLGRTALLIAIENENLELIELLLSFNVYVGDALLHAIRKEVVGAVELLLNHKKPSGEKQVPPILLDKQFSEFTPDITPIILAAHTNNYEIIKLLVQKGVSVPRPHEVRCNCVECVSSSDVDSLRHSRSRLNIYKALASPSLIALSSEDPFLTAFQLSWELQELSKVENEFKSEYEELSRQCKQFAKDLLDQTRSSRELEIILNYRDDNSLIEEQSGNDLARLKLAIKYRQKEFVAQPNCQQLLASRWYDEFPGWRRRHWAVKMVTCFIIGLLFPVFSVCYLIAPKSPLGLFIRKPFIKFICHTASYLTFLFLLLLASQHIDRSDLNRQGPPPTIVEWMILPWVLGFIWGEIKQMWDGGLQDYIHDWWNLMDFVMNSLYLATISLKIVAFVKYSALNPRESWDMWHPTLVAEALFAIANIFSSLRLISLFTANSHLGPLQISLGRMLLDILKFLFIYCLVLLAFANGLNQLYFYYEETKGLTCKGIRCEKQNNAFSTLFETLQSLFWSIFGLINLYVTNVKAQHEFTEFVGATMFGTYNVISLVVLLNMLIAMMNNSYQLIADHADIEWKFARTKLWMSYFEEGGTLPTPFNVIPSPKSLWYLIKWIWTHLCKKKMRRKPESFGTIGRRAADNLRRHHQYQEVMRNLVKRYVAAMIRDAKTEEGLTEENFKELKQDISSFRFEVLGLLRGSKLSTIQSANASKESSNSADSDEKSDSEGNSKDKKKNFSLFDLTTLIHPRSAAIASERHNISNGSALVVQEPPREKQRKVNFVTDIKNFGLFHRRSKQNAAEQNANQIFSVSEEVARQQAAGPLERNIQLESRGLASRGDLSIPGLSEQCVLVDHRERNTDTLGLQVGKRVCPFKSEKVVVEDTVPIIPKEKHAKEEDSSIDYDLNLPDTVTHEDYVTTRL
Assay: whole-cell patch clamp in HEK293-TRPC4 cells (EA-evoked current); also Ca2+ influx assay
Format: cell-based

Q: With `C=C(C)[C@@H]1CCC(C)=C[C@H]1c1c(O)cc(CCCCC)cc1O` [CBD, Cannabidiol] as the compound, how does the IC50 read?
A: The IC50 was 1520 ± 600 nM.
